Experimental data: US10870638B2, “Pyridazinone compound or its salt, and herbicide containing it” (ISHIHARA SANGYO KAISHA, LTD., priority 2016, dated 2020)

Legend:
Assay in all cases: Test Example 1: foliar treatment, growth inhibition rate on 14th day
Type in all cases: in vivo
Conditions in all cases: active ingredient amount 31 g/ha, 14th day after application
[1] = test system: wild oat (Avena fatua L.)
Source text: (§1) Upland field soil was put into a 1/300,000 hectare pot, and seeds of various plants were sown. When the respective plants reached predetermined leaf stage ((1) barnyardgrass (Echinochloa crus-[…].): 0.5 to 2.9 leaf stage, (2) crabgrass (Digitaria sanquinalis L.): 0.5 to 3.0 leaf stage, (3) green foxtail (Setaria viridis L.): 0.5 to 3.2 leaf stage, (4) wild oat (Avena fatua L.): 0.4 to 1.2 leaf stage, (5) italian ryegrass (Lolium multiflorum Lam.): 0.4 to 2.0 leaf stage, (6) redroot pigweed (Amaranthus retroflexus L.): cotyledon stage to 2.2 leaf stage, (7) rice (Oryza sativa L.): 0.2 to 2.7 leaf stage, (8) corn (Zea mays L.): 1.7 to 3.6 leaf stage, (9) wheat (Triticum aestivum L.): 1.3 to 2.3 leaf stage, (10) soybean (Glycine max Merr.); primary leaf stage), wettable powders or emulsifiable concentrates of the compounds of the present invention prepared in accordance with a conventional preparation method, were weighed so as to achieve the prescribed active ingredient amounts, and diluted with water in an amount corresponding to 1,000 liters per 1 hectare (containing 0.1 vol % of an agricultural spreader (surfactant WK manufactured by MARUWA BIOCHEMICAL Co., Ltd.)), and the spray solutions thus prepared were applied for foliar treatment by a small sprayer. On the 14th day after the application, the state of growth of the respective plants was visually observed, and the herbicidal effect was evaluated by a growth inhibition rate (%) of 0 (equivalent to the non-treated area) to 100 (complete kill).

[2] = test system: crabgrass (Digitaria sanquinalis L.)
Source text: as §1

[3] = test system: green foxtail (Setaria viridis L.)
Source text: as §1

corn (Zea mays L.) = test system: corn (Zea mays L.)
Source text: as §1

[4] = test system: italian ryegrass (Lolium multiflorum Lam.)
Source text: as §1

[5] = test system: soybean (Glycine max Merr.)
Source text: as §1

rice (Oryza sativa L.) = test system: rice (Oryza sativa L.)
Source text: as §1

[6] = test system: barnyardgrass (Echinochloa crus-qalli L.)
Source text: as §1

[7] = test system: wheat (Triticum aestivum L.)
Source text: as §1

[8] = test system: redroot pigweed (Amaranthus retroflexus L.)
Source text: as §1

Compound	Growth inhibition rate (%) Wild oat [1] [%]	Growth inhibition rate (%) Crabgrass [2] [%]	Growth inhibition rate (%) Green foxtail [3] [%]	Growth inhibition rate (%) Corn (corn (Zea mays L.)) [%]	Growth inhibition rate (%) Italian ryegrass [4] [%]	Growth inhibition rate (%) Soybean [5] [%]	Growth inhibition rate (%) Rice (rice (Oryza sativa L.)) [%]	Growth inhibition rate (%) Barnyardgrass [6] [%]	Growth inhibition rate (%) Wheat [7] [%]	Growth inhibition rate (%) Redroot pigweed [8] [%]
COc1ccc(Oc2ncc(C(F)(F)F)cc2Cl)cc1-c1c(O)c(C)nn(C)c1=O [1-10]	20	90	90	60	0	20	0	70	0	0
Cc1ccc(Oc2ncc(C(F)(F)F)cc2Cl)c(C)c1-c1c(O)c(C)nn(C)c1=O [1-13]	75	95	100	88	70	0	40	100	20	0
COC(=O)OC(C)Oc1c(C)nn(C)c(=O)c1-c1cc(Oc2ncc(C(F)(F)F)cc2Cl)ccc1C (stereo not drawn) [1-130]	98	99	99	95	93	0	30	100	80	0
CCOC(=O)OC(C)Oc1c(C)nn(C)c(=O)c1-c1cc(Oc2ncc(C(F)(F)F)cc2Cl)ccc1C (stereo not drawn) [1-131]	93	100	93	80	83	0	30	100	60	0
Cc1ccc(Oc2ncc(C(F)(F)F)cc2Cl)cc1-c1c(OC(C)OC(=O)OC(C)C)c(C)nn(C)c1=O (stereo not drawn) [1-133]	40	0	30	0	0	0	0	88	0	0
COCCOCOc1c(C)nn(C)c(=O)c1-c1cc(Oc2ncc(C(F)(F)F)cc2Cl)ccc1C [1-134]	99	99	100	93	98	0	88	98	98	0
CCCCC(=O)Oc1c(C)nn(C)c(=O)c1-c1cc(Oc2ncc(C(F)(F)F)cc2Cl)ccc1C [1-135]	100	99	100	98	100	0	90	100	100	0
Cc1ccc(Oc2ncc(C(F)(F)F)cc2Cl)cc1-c1c(OC(=O)c2nn(C)cc2C)c(C)nn(C)c1=O [1-136]	98	98	100	99	98	0	25	100	90	0
CCc1nn(C)c(=O)c(-c2cc(Oc3ncc(C(F)(F)F)cc3Cl)ccc2C)c1OC(C)=O [1-137]	93	75	80	95	93	15	85	100	85	0
CCc1nn(C)c(=O)c(-c2cc(Oc3ncc(C(F)(F)F)cc3Cl)ccc2C)c1OCOC [1-138]	90	85	60	83	70	30	0	100	83	0
CCc1nn(C)c(=O)c(-c2cc(Oc3ncc(C(F)(F)F)cc3Cl)ccc2C)c1OC(C)OC(=O)OC (stereo not drawn) [1-139]	88	80	60	50	98	15	20	100	45	0
CC(=O)Oc1c(C(F)(F)F)nn(C)c(=O)c1-c1cc(Oc2ncc(C(F)(F)F)cc2Cl)ccc1C [1-142]	85	88	40	50	20	40	15	90	20	20
CC(=O)Oc1c(C)nn(C)c(=O)c1-c1cc(Oc2nc3ccc(Cl)cc3s2)ccc1C [Compound 2-132]	90	50	80	0	78	30	40	90	70	
